In one data set the test system is Kidney Bean. In words: Phytotoxicity on various crops. The data set is classed as in vivo. Details: key: Symbol — indicates that no toxicity was observed. To be noted: 500 ppm sprayed; checked visually after 10 days. The method, boiled down: (§1)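 Plants were sprayed with an aqueous dilution of an emulsifiable concentrate at 500 ppm of active ingredient, then kept under greenhouse conditions. Injury was assessed by eye ten days later.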

The test system of another data set is Cabbage. Nature of the data set: Phytotoxicity on various crops. The data set is classed as in vivo. Details: key: Symbol — indicates that no toxicity was observed. The following applies: 500 ppm sprayed; checked visually after 10 days. The method, boiled down:
as §1

In the next data set the test system is egg plant. In words: Phytotoxicity on various crops. It is filed as in vivo. Details: key: Symbol — indicates that no toxicity was observed. The following applies: 500 ppm sprayed; checked visually after 10 days. An outline of the steps:
as §1

The test system of the next data set is Cucumber. Nature of the data set: Phytotoxicity on various crops. The data set is classed as in vivo. The arrangement: key: Symbol — indicates that no toxicity was observed. To be noted: 500 ppm sprayed; checked visually after 10 days. An outline of the steps: as §1
In the next data set the test system is Tea. In words: Phytotoxicity on various crops. It is filed as in vivo. The arrangement: key: Symbol — indicates that no toxicity was observed. The following applies: 500 ppm sprayed; checked visually after 10 days. The method, boiled down:
as §1

For the next data set, the system named is tobacco cutworm. In words: Insecticidal effect on tobacco cutworm (cabbage leaf dip). The data set is classed as in vivo, Prodenia litura. The following applies: after 48 hours, 25°C. An outline of the steps: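 Cabbage leaves dipped in water-diluted emulsifiable concentrate (two formulations, tests A and B) and air-dried were fed to 3rd-instar tobacco cutworm larvae at 25°C. Percent mortality scored after 48 hours; 3 replicates of 30 insects per compound.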

Data set [1] deals with carmine mites resistant to Kelthane. In words: Miticidal effect on carmine mite resistant to Kelthane (sprayed egg plant seedling). The data set is classed as in vivo, Tetranychus cinnabarius. To be noted: 500 ppm; for Number of Living Mites after Application 7th Day / Number of Living Mites after Application 14th Day / Number of Living Mites after Application 21st Day / Number of Living Mites after Application 28th Day: egg plant seedling; for Control Effect (%): from mite counts on 7th, 14th, 21st and 28th day. As for the experimental part: (§2) (A) An emulsifiable concentrate prepared as described in Formulation Example 1 and diluted to a predetermined concentration was sprayed using a spray-gun on a seedling of an egg plant placed in a pot of 12 cm in diametre to which plant carmine mites resistant to Kelthane were parasitic. After drying in air, seedlings were kept in a green house, and the number of living insects was recorded on the 7th, 14th, 21 st and 28th day from the day of application to determine the control effects. Three pots were used for each treatment. The control effect was assessed by the formula described in TEST EXAMPLE 7 above. Further, phytotoxicity was observed visually on the 7th day after the application.
as §2, with “(B) An” for “(A) An”, “Example 3” for “Example 1”, “in diameter” for “in diametre”, “in Test” for “in TEST”

A further data set relates to rice stem borer. In words: Insecticidal effect on rice stem borer, 3rd-instar larvae (rice seedling dip). It is filed as in vivo, Chilo suppressalis. To be noted: after 72 hours, 25°C. The method, boiled down: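 Wettable-powder formulations were diluted in water to set concentrations, and rice seedlings were dipped in them. Ten 3rd-instar larvae were placed per capped cup with the treated seedlings and held at 25°C.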

The test system of the next data set is apple leaf miner. In words: Insecticidal effect on apple leaf miner (sprayed apple seedling). The data set is classed as in vivo, Lithocolletis ringoniella. To be noted: Phyllonorycter ringoniella, 336 h, 500 ppm, fourteen days after spraying. An outline of the steps: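 Wettable-powder suspensions were sprayed onto potted apple seedlings infested with newly hatched leaf miner larvae, then kept in a greenhouse.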

Where [2] appears, read: Table 3, 500 ppm, emulsifiable concentrate as Formulation Example 1.
Where [3] appears, read: Table 13, Formulation Example 1.
[4] abbreviates: Table 14, Formulation Example 3.
The mark [5] stands for this setting: Table 1, 500 ppm, wettable powder as Formulation Example 5.
Where [6] appears, read: Table 10, wettable powder as Formulation Example 5, read-out: Percent Morality (%).

Like-named read-outs stand apart in the source and are kept apart here.

With `CCCSP(=S)(OCC)Oc1ccc2c(c1)OC(C)=CC2(C)C` (stereo not drawn) [Compound No. 10], the “Phytotoxicity: Kidney Bean” value in the data set with Kidney Bean is reported as “—”. Also, in the data set with Cabbage, the “Phytotoxicity: Cabbage” value was “—”. The “Phytotoxicity: Egg Plant” value in the data set with egg plant is recorded as “—”. Besides, the “Phytotoxicity: Cucumber” value with Cucumber is “—”. Besides, in the data set with Tea, the “Phytotoxicity: Tea” value was “—”. Further, the “Percent Mortality (%)” value in the data set on tobacco cutworm (setting [2]) is on record as 100%. Moreover, in [1] (setting [3]), the “Number of Living Mites after Application 7th Day” value was 0, the “Number of Living Mites after Application 14th Day” value stood at 0, the “Number of Living Mites after Application 21st Day” value is 4 and the “Number of Living Mites after Application 28th Day” value was found to be 16. The “Control Effect (%)” value in data set [1] (Table 13) turned out to be 99.0%. In addition, in data set [1] (setting [4]), the “Number of Living Mites after Application 7th Day” value was 0, the “Number of Living Mites after Application 14th Day” value amounted to 0, the “Number of Living Mites after Application 21st Day” value was 0 and the “Number of Living Mites after Application 28th Day” value came to 12. Moreover, the “Control Effect (%)” value in data set [1] (Table 14) was 98.7%. Moreover, in the data set on rice stem borer (setting [5]), the “Percent Mortality (%)” value turned out to be 100%. Besides, the mortality at 500 ppm in the data set on apple leaf miner (setting [6]) was found to be 100%.
For the compound `CCCSP(=O)(OC)Oc1ccc2c(c1)OC(C)=CC2(C)C` (stereo not drawn) [Compound No. 1], the “Phytotoxicity: Kidney Bean” value with Kidney Bean is listed as “—”. Moreover, in the data set on Cabbage, the “Phytotoxicity: Cabbage” value was “—”. In the data set on egg plant, the “Phytotoxicity: Egg Plant” value was “—”. In addition, the “Phytotoxicity: Cucumber” value in the data set with Cucumber is “—”. The “Phytotoxicity: Tea” value with Tea was “—”. Moreover, in the data set with tobacco cutworm (setting [2]), the “Percent Mortality (%)” value worked out at 100%. In data set [1] (setting [3]), the “Number of Living Mites after Application 7th Day” value turned out to be 0, the “Number of Living Mites after Application 14th Day” value was 0, the “Number of Living Mites after Application 21st Day” value amounted to 5 and the “Number of Living Mites after Application 28th Day” value turned out to be 11. Moreover, the “Control Effect (%)” value in data set [1] (Table 13) was found to be 99.0%. For the same compound, the “Percent Mortality (%)” value in the data set with rice stem borer (setting [5]) was determined as 100%. The mortality at 500 ppm in the data set with apple leaf miner (setting [6]) came out at 100%.
For `CCCSP(=O)(OCC)Oc1ccc2c(c1)OC(C)(C)C=C2C` (stereo not drawn) [Compound No. 20, O-ethyl-S-propyl-0-(2,2,4-trimethyl-1,2-benzopyran-7-yl)phosphorothioate], the “Phytotoxicity: Kidney Bean” value in the data set with Kidney Bean was “—”. In addition, the “Phytotoxicity: Cabbage” value in the data set with Cabbage is given as “—”. The “Phytotoxicity: Egg Plant” value in the data set with egg plant was “—”. In the data set on Cucumber, the “Phytotoxicity: Cucumber” value is on record as “—”. The “Phytotoxicity: Tea” value in the data set on Tea is given as “—”. The “Percent Mortality (%)” value in the data set with tobacco cutworm (setting [2]) worked out at 100%; in the data set on tobacco cutworm (Table 4, 100 ppm, emulsifiable concentrate as Formulation Example 3) it was 100%; in the data set with rice stem borer (Table 1, 100 ppm, wettable powder as Formulation Example 5) it was 100%; in the data set with rice stem borer (setting [5]) it was 100%; in the data set on rice stem borer (Table 2, 100 ppm, wettable powder as Formulation Example 7), 100%. The mortality at 500 ppm in the data set with apple leaf miner (setting [6]) came to 100%; in the data set with apple leaf miner (Table 11, wettable powder as Formulation Example 7, read-out: Percent Mortality (%)), 96.6%.
On to `CCCSP(=O)(OCC)Oc1ccc2c(c1)OC(C)=CC2(C)C` (stereo not drawn) [Compound No. 2, O-ethyl-S-propyl-O-(2,4,4-trimethyl-1,4-benzopyran-7-yl)phosphorothioate], for which the “Phytotoxicity: Kidney Bean” value with Kidney Bean is reported as “—”. The “Phytotoxicity: Cabbage” value with Cabbage is listed as “—”. The “Phytotoxicity: Egg Plant” value in the data set on egg plant is on record as “—”. Also, the “Phytotoxicity: Cucumber” value in the data set with Cucumber is “—”. In the data set on Tea, the “Phytotoxicity: Tea” value is “—”. The “Percent Mortality (%)” value in the data set with tobacco cutworm (setting [2]) was 100%. For the same compound, in data set [1] (setting [3]), the “Number of Living Mites after Application 7th Day” value worked out at 0, the “Number of Living Mites after Application 14th Day” value came to 0, the “Number of Living Mites after Application 21st Day” value worked out at 7 and the “Number of Living Mites after Application 28th Day” value was determined as 10. For the same compound, the “Control Effect (%)” value in [1] (Table 13) came out at 99.1%. In the data set on rice stem borer (setting [5]), the “Percent Mortality (%)” value was 100%. For the same compound, the mortality at 500 ppm in the data set with apple leaf miner (setting [6]) came to 100%.
Take `CCCSP(=S)(OC)Oc1ccc2c(c1)OC(C)=CC2(C)C` (stereo not drawn) [Compound No. 9, 0-methyl-S-propyl-(2,4,4-trimethyl-1,4-benzopyran-7-yl)phosphorodithioate]: in the data set on Kidney Bean, the “Phytotoxicity: Kidney Bean” value is on record as “—”. The “Phytotoxicity: Cabbage” value in the data set on Cabbage is given as “—”. Also, the “Phytotoxicity: Egg Plant” value in the data set on egg plant is listed as “—”. Also, in the data set on Cucumber, the “Phytotoxicity: Cucumber” value was “—”. The “Phytotoxicity: Tea” value with Tea is on record as “—”. Further, in the data set on tobacco cutworm (setting [2]), the “Percent Mortality (%)” value came out at 100%. Further, in data set [1] (setting [3]), the “Number of Living Mites after Application 7th Day” value was 0, the “Number of Living Mites after Application 14th Day” value is listed as 0, the “Number of Living Mites after Application 21st Day” value is given as 0 and the “Number of Living Mites after Application 28th Day” value worked out at 0. Moreover, the “Control Effect (%)” value in data set [1] (Table 13) is given as 100%. Besides, in the data set with rice stem borer (setting [5]), the “Percent Mortality (%)” value is on record as 100%. The mortality at 500 ppm with apple leaf miner (setting [6]) stood at 100%.

Source of the values: patent EP0054589B1, “Organic phosphoric acid ester derivatives, a process for preparing the same and insecticidal, miticidal or nematocidal compositions containing the same” (priority 1980, dated 1982).
